# In article PMC12040169 (PLOS Biology, 2025):
# Where “and” joins values, the source holds several entries; their conditions need not be identical. Equal values may be shown once.
# Columns and labels:
# HeLa = conditions: bulk resorufin, single well, 28.5 h, 10 µM, Bulk resorufin fluorescence
# in vitro = conditions: human, hela cells, % viability
SMILES,% viability (HeLa),"viability at 28.5 h, 10 µM (in vitro)","viability at 28.5 h, 10 µM (in vitro; bulk resorufin, single well)"
CCCOc1cccc(C(=O)Nc2cccc(-c3nc4ncccc4o3)c2C)c1 [CBK072326],106%,97.9%,
Nc1nn2c(c1Cc1c(Cl)cccc1Cl)OCCCC2 [CBK089335],86.2%,91.8%,
C[C@H](Cn1c(C(F)(F)F)cc2cccnc21)NC(=O)c1ccco1 [CBK282933],94.6%,91.5%,
O=C(NCCCN1CCCCC1)/C(=N\O)c1ccccc1 [CBK288524],85.9%,97.7%,
Cc1ccc(CN2CCNC(=O)C2CC(=O)O)o1 (centres unmarked) [CBK269966],91.7%,91.8%,
O=C(CN1C(=O)[C@H]2CCCN2C(=O)c2ccccc21)N1CCCCC1 [CBK282435],80.4%,90.6%,
CCN(CC)C(=O)Cn1c([C@@H]2CCCO2)cc2cccnc21 [CBK282283],90.4%,105%,
Clc1ccc(CN2CCC(Oc3cncc(OCC4COc5ccccc5O4)n3)C2)cc1Cl (centres unmarked) [CBK084361],90.5%,107%,
Nc1nc(=O)c2cnc3ccc(Cl)cc3c2s1 [CBK288175],79.6%,84.6%,
Cc1ccc(S(=O)(=O)Nc2ccsc2C(=O)N2CCOCC2)cc1 [CBK004570],107%,99.9%,
COc1ccccc1CC(=O)Nc1ccc(O)cc1C(=O)O [CBK264305],91.2%,105%,
O=c1[nH]nc2ccc(S(=O)(=O)N3CCCC3)cn12 [CBK288033],91.1%,80.5%,
C[C@@H]1CN2CCCC2CN1CC1CC=CCC1 (some centres unmarked) [CBK285441],99.9%,99.1%,
C=CCNC(=O)[C@@H]1C=CCN1C(=O)c1ccc(OC)cc1 [CBK284317],76.8%,95.4%,
CCCC(=O)NCc1ccc(OC2CCNCC2)cc1 [CBK024489T],112%,95.6%,
O=C(O)c1cccc(Sc2ncccc2C(F)(F)F)c1 [CBK093589],108%,103%,
CCc1cc(CN(CC)CC)n[nH]1 [CBK018654],94.5%,114%,
O=C(O)CCc1nn2c(-c3ccccc3)c(-c3ccccc3)nc2[nH]c1=O [CBK013564],94.1%,86.5%,
O=C1CCC(=O)N1CCOc1nccnc1OC1CCN(Cc2cccnc2)CC1 [CBK084339],89.7%,107%,
c1cncc(COc2cncc(OC3CCN(CCc4c[nH]c5ccccc45)C3)n2)c1 (centres unmarked) [CBK084471],113%,111%,
CC(C)[C@H](Cn1nc(C2CC2)ccc1=O)NC(=O)Cc1cccs1 [CBK282368],88.6%,79.7%,
CNC(=S)N1CCN(c2nsc3ccccc23)CC1 [CBK288515],83.2%,83.5%,
CC1CCc2c(sc3ncnc(SCC(=O)N4CCOCC4)c23)C1 (centres unmarked) [CBK266192],111%,105%,
CC(C)Nc1nc(-c2cccnc2)nc2ccccc12 [CBK073006],94.6% and 102%,91.1%,
CC(C)Nc1cc(Sc2ccc(Cl)c(Cl)c2)ncn1 [CBK089500],83.3%,90.8%,

SMILES,% viability (HeLa),"viability at 28.5 h, 10 µM (in vitro)","viability at 28.5 h, 10 µM (in vitro; bulk resorufin, single well)"
CCCn1ncc(CN2C[C@@H]3CCCN3C[C@@H]2CCSC)c1C [CBK285426],107%,104%,
C=CCNC(=O)Cn1c([C@@H]2CCCO2)cc2cccnc21 [CBK282873],110%,98.2%,
COc1ccc(CN2CCCN(c3nccc(OCCN4CCOCC4)n3)CC2)cc1 [CBK083932],108%,104%,
C[C@H]1CN2C[C@H](O)CC2CN1Cc1ccc(Cl)c(Cl)c1 (some centres unmarked) [CBK285404],94.3%,111%,
Cc1nn(C)c(N2CCNCC2)c1NC(=O)C1CCC1 [CBK045923T],96.2%,91.8%,
O=C(CN1C(=O)[C@H]2CCCN2C(=O)c2ccccc21)Nc1ccccc1-c1ccccc1 [CBK286321],94.1%,93.9%,
C[C@H](Cn1nc2c(cc1=O)CCCCC2)NC(=O)c1ccco1 [CBK284544],88.3%,84.9%,
CC(=O)Nc1ccc(S(N)(=O)=O)c2ccccc12 [CBK288522],94%,83.5%,
C[C@@H](Cn1nnc2ccccc21)NC(=O)C1CC1 [CBK284312],81.5%,88.5%,
CCN(Cc1ccccc1)C(=O)NCc1cccc(C(F)(F)F)c1 [CBK155216],96.1%,110%,
COc1cccc(CN2CC3CCCN3C[C@H]2C)c1 (some centres unmarked) [CBK285442],105%,113%,
CCN(Cc1ccccc1)C(=O)NCc1cc(C)on1 [CBK155211],92.6%,106%,
CC(C)(C)OC(=O)N1CCC[C@@H]1C(=O)c1cccs1 [CBK284289],90.7%,100%,
Cc1nn(CC(C)C(=O)O)c(C)c1Br (centres unmarked) [CBK269756],86.7%,92.4%,
CC(C)(C)c1nc(CN2CCOCC2)ccc1O [CBK026614C],111%,112%,
CCn1cc(C(=O)NN)c(=O)c2cc(F)c(N3CCOCC3)cc21 [CBK263050],107%,99.9%,
C[C@H](Cn1nc2c(cc1=O)CCCCC2)NC(=O)c1ccc(F)cc1 [CBK284557],93.4%,98.4%,
O=C(CN1C(=O)C2CCCCC2C1=O)Nc1ccccc1C(=O)O (centres unmarked) [CBK264130],108%,91.5%,
CCC(Sc1nc(C)c(Cc2ccccc2)c(=O)[nH]1)C(=O)O (centres unmarked) [CBK270058],91.7%,91.2%,
CC(C(=O)Nc1cncc(OC2CCNCC2)n1)c1ccccc1 (centres unmarked) [CBK026733T],110%,99.2%,
C[C@H](Cn1c(=O)oc2ccccc21)NC(=O)CC1c2ccccc2Oc2ccccc21 [CBK286201],96.8%,90.1%,
COC(=O)[C@@H]1Cc2c([nH]c3ccccc23)[C@H]2C[C@H](NCCO)C[C@@H](c3ccccc3)N21 [CBK289167],97.8%,94.8%,
C=CCNC(=O)[C@H]1C=CCN1S(=O)(=O)c1ccc(F)cc1 [CBK282320],89.7%,83.5%,
CCOc1ccc(-c2ccnc(NC[C@@H]3CCCO3)n2)cc1C(=O)O [CBK306568],89.2%,86.5%,
CSc1ccc(CN2CCN(Cc3ccc(Br)cc3)CC2)cc1 [CBK027856],96.4%,,79.2%

SMILES,% viability (HeLa),"viability at 28.5 h, 10 µM (in vitro)","viability at 28.5 h, 10 µM (in vitro; bulk resorufin, single well)"
COc1ccc(NC(=O)[C@@H]2C=CCN2C(=O)c2ccco2)cc1 [CBK284292],77.2%,88.5%,
NCCCOc1nc2ccccc2nc1C(F)(F)F [CBK115295],109%,96.8%,
CC(C)[C@@H](CO)Nc1nccnc1-c1cccc(C(=O)O)c1 [CBK036665],93%,85.6%,
CSCC[C@@H]1CN2CCC[C@H]2CN1Cc1cn(C)nc1C [CBK285462],107%,95.5%,
CC[C@H](Cn1ncc2ccccc2c1=O)NC(=O)c1cccs1 [CBK284301],90.5%,96.7%,
Cc1nnc2c(N3CCNCC3)nc3ccccc3n12 [CBK270224],75.4%,89%,
CC[C@H](CO)NC(=O)c1coc(COc2ccc3sc(C)nc3c2)n1 [CBK306602],93.5%,85.3%,
C[C@H](Cn1nc2c(cc1=O)CCCCC2)NC(=O)c1cccc(F)c1 [CBK284558],90%,85.8%,
N#Cc1cccc(-c2ccc3c(c2)COC(C2CCN(C(=O)OCc4ccccc4)CC2)O3)c1 (centres unmarked) [CBK144640],93%,101%,
O=C(NC1CCCCC1)[C@H]1C=CCN1C(=O)c1ccccc1F [CBK283334],98%,85.6%,
CCn1cc(CN2C[C@@H]3CCCN3C[C@@H]2CCSC)cn1 [CBK283181],106%,86.9%,
C[C@H]1CN2C[C@H](O)CC2CN1Cc1cccc(Oc2ccccc2)c1 (some centres unmarked) [CBK284566],96.2%,93.6%,
CS(=O)(=O)N1CC=C[C@H]1C(=O)NCc1ccc(F)cc1 [CBK284270],87.2%,97.6%,
COc1ccc(NC(=O)Nc2ccncc2)c(OC)c1 [CBK266973],93.8%,95.5%,
CCCNC(=O)NS(=O)(=O)c1ccc(C)cc1 [CBK288527],90.2%,100%,
COC(=O)c1ccccc1OC[C@@H]1CN(C(=O)C(C)(C)N)C[C@H]1c1cc2ccccc2o1 [CBK022525T],92.2%,106%,
O=C(O)CC1C(=O)NCCN1Cc1cccc(Oc2ccccc2)c1 (centres unmarked) [CBK270023],103%,91.4%,
CC[C@H](Cn1ncc2ccccc2c1=O)NC(=O)Cc1ccsc1 [CBK284306],88.7%,98.4%,
O=C(NCCN1CCCC1)c1cc2cc(F)ccc2[nH]1 [CBK107278],105%,106%,
O=C(NC[C@H]1CCCN(C(=O)c2cccnc2)C1)c1cccs1 [CBK284264],90.3%,81.6%,
C[C@@H]1CN2CCCC2CN1Cc1ccc(N(C)C)cc1 (some centres unmarked) [CBK285406],102%,101%,
Cc1ccc(CN2CC3CCCN3C[C@H]2C)o1 (some centres unmarked) [CBK285407],104%,87.1%,
NC(=O)CSc1nnc(-c2ccc(Cl)cc2)o1 [CBK068597],89.3%,105%,
